Reference: the supplement of paper PMC5412046
Structures can show the parent of a compound that is named as a salt.

Key:
[1] = system: SB.mhdgc-1; experiment: AC50 for growth inhibition (viability) (log10 M); higher = less potent; conditions: SB.mhdgc-1 (hereditary c.1380delA CDH1 gastric cancer)
Summary of the method: (§1)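 In 1536-well plates, each well held 500 patient-derived gastric cancer cells (hereditary or sporadic) in 5 μL medium. Compound in DMSO, 23 nL per well, was pinned in 11 threefold dilutions starting at a final 46 μM. Following 48 h of exposure, cells had CellTiter-Glo for 30 min at room temperature before ViewLux luminescence reading. Only high-quality curve classes from four-parameter fits of DMSO-normalised viability gave the log half-maximal activity concentration.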

[2] = system: SB.msgc-1; experiment: as above; conditions: SB.msgc-1 (sporadic gastric cancer)
Summary of the method: as §1

| Structure (SMILES) | AC50 for growth inhibition (log10 M) [1] | AC50 for growth inhibition (log10 M) [2] |
| --- | --- | --- |
| Fc1cc(-c2cccc3ncc(-c4cnn(C5CCNCC5)c4)nc23)cc(F)c1CN1CCOCC1 [NVP-BSK805] | -5.03 | -4.68 |
| Cc1c(NC(=O)OC[C@@H]2COCCN2)cn2ncnc(Nc3ccc4c(cnn4Cc4cccc(F)c4)c3)c12 [AC-480] | -6.53 | -6.68 |
| N[S+]([O-])(=O)C1=CC=C(NC/2=C/C(=O)C3=CC=CC=C3C2=O)C=C1 | -6.23 | -4.98 |
| CCC(c1ccc(O)cc1)C(CC)c1ccc(O)cc1 (stereo not given) [Hexestrol] | -5.88 | -5.88 |
| COC(=O)Nc1nc2cc(Sc3ccccc3)ccc2[nH]1 [Fenbendazole] | -6.63 | -5.53 |
| OCCN1CCN(CCCN2c3ccccc3Sc3ccc(C(F)(F)F)cc32)CC1 [Fluphenazine hydrochloride] | -4.83 | -4.78 |
| Cc1cnc(Nc2ccc(CN3CCOCC3)cc2)nc1Nc1cccc([S+](=O)([O-])NC(C)(C)C)c1 [TG-46] | -4.68 | -4.83 |
| CCN(CC)CCCCNc1ncc2c(n1)N(C)C(=O)N(c1c(Cl)c(OC)cc(OC)c1Cl)C2 | -4.78 | -4.63 |
| ClC1=CC\2=C(NC(=O)\C(=C2N[C@@H]3CN4CCC3CC4)C5=NC6=C([NH]5)C=CC=C6)C=C1 [CHIR-124] | -6.08 | -6.53 |
| O=C1Nc2cc(Br)ccc2/C1=C1/Nc2ccccc2/C1=N\O [BIO] | -4.78 | -4.98 |
| COC1=CC=C(C=C1O)C/2=C/C(=O)C3=C(O2)C=C(O[C@@H]4O[C@H](CO[C@@H]5O[C@@H](C)[C@H](O)[C@@H](O)[C@H]5O)[C@@H](O)[C@H](O)[C@H]4O)C=C3O [Diosmin] | -5.03 | -5.58 |
| COc1c(C)c2c(c(O)c1C/C=C(\C)CCC(=O)O)C(=O)OC2 [Mycophenolic acid] | -5.48 | -5.93 |
| O=C(Nc1ccc(F)c(C(F)(F)F)c1)Nc1nnc(-c2ccncc2)s1 | -5.53 | -5.28 |
| CC(=O)O[C@@]12CO[C@@H]1C[C@H](O)[C@]3(C)[C@@H]2[C@H](OC(=O)C4=CC=CC=C4)[C@]5(O)C[C@H](O)/C(=C(/[C@@H](O)C3=O)C5(C)C)C [10-Deacetylbaccatin] | -5.83 | -5.38 |
| C[S+](=O)([O-])N1CCN(Cc2cc3nc(-c4cccc5[nH]ncc45)nc(N4CCOCC4)c3s2)CC1 [GDC-0941] | -7.23 | -6.13 |
| NC1(c2ccc(-c3nc4ccn5c(=O)[nH]nc5c4cc3-c3ccccc3)cc2)CCC1 [MK-2206] | -6.13 | -4.68 |
| CN(C)[S+](=O)([O-])c1ccc2c(c1)C(=Cc1cc3c([nH]1)CCCC3)C(=O)N2 [SU-6656] | -5.28 | -5.43 |
| CCOC(=O)C/1=C(C)/NC(=S)NC1C2=CC=CC(=C2)O (stereo not given) [Monastrol] | -7.38 | -7.38 |
| COc1cc([C@@H]2c3cc4c(cc3[C@@H](O)C3COC(=O)C32)OCO4)cc(OC)c1O (stereo not given in full) [4-Demethylepipodophyllotoxin] | -7.38 | -6.63 |

| Structure (SMILES) | AC50 for growth inhibition (log10 M) [1] | AC50 for growth inhibition (log10 M) [2] |
| --- | --- | --- |
| CC(C)(O)/C=C\C(=O)[C@](C)(O)[C@H]1[C@H](O)C[C@]2(C)[C@@H]3CC=C4[C@@H](C=C(O)C(=O)C4(C)C)[C@]3(C)C(=O)C[C@@]12C [Cucurbitacin I] | -7.43 | -5.98 |
| ClC1=CC=C(CCCOC/2=N/NC(=O)C(=C2NCC3=CN=CC=C3)/Br)C=C1 [Parogrelil] | -5.13 | -4.83 |
| C[C@]1(O)CC(C1)C2=NC(=C3[N]2C=CN=C3N)C4=CC5=C(C=C4)C=CC(=N5)C6=CC=CC=C6 (stereo not given) [Linsitinib] | -5.03 | -4.78 |
| Cc1ccc(-c2ncn(-c3ccc(Nc4nccc(-c5cccc(N6CCOCC6)c5)n4)cc3)n2)cn1 [SR-3306] | -6.18 | -7.13 |
| OC1=CC=C(C=C1)\C2=C(O)\C(=O)C3=C(O2)C=C(O)C=C3O [Kaempferol] | -4.93 | -4.88 |
| Cc1cc(C[S+](=O)([O-])c2ccccc2)cc(OCc2ccc(CN3CCC[C@@H]3CO)cc2)c1 [PF-543] | -4.78 | -4.83 |
| N/C(=N\C(=O)c1nc(Cl)c(N)nc1N)NCc1ccccc1 [Benzamil] | -5.73 | -5.53 |
| CCc1cc(Nc2nccc(-c3c(-c4ccc(OC)c(C(=O)Nc5c(F)cccc5F)c4)nc4ccccn34)n2)c(OC)cc1N1CCC(N2CCN([S+](C)(=O)[O-])CC2)CC1 | -7.33 | -5.63 |
| CN(C)CCOc1ccc(/C(=C(/CCCl)c2ccccc2)c2ccccc2)cc1 [Toremifene] | -4.63 | -4.63 |
| COC(=O)N[C@H](C(=O)N1CCC[C@H]1c1ncc(-c2ccc(-c3ccc(-c4cnc([C@@H]5CCCN5C(=O)[C@@H](NC(=O)OC)C(C)C)[nH]4)cc3)cc2)[nH]1)C(C)C [Daclatasvir dihydrochloride] | -4.63 |  |
| O=C(NCCCCN1CCOCC1)c1cc2ccccc2o1 | -4.73 |  |
| COc1cc(CCc2cc(NC(=O)c3ccc(N4C[C@@H](C)N[C@@H](C)C4)cc3)n[nH]2)cc(OC)c1 [AZD-4547] | -4.68 |  |
| Cc1ccc([S+](=O)([O-])NC(=O)NN2CC3CCCC3C2)cc1 (stereo not given) [Gliclazide] | -4.58 |  |
| Nc1cccc(-c2cc3c(Oc4cccc(O)c4)ncnc3[nH]2)c1 [TWS-119] | -5.03 |  |
| CO/C1=C/C(C)=C\[C@@H](C)[C@@H](O)[C@@H](C)C/C(C)=C\C=C/[C@H](OC)[C@@H]([C@@H](C)[C@@H](O)[C@H](C)[C@@]2(O)C[C@@H](O)[C@H](C)[C@@H](C(C)C)O2)OC1=O [Bafilomycin A1] | -8.78 |  |
| CN(C)/[N+]([O-])=N/Oc1cc(ON[N+](=O)N2CCN(C(=O)c3cc(Cc4n[nH]c(=O)c5ccccc45)ccc3F)CC2)c([N+](=O)[O-])cc1[N+](=O)[O-] [JS-65-103] | -4.68 |  |
| CCOC(=O)[C@@H](N)CCC(=O)N[C@@H](CSCc1ccccc1)C(=O)N[C@@H](C(=O)OCC)c1ccccc1 [Ezatiostat] | -4.83 |  |
| CN[C@@H]1CN(C[C@H]1OC)C2=NC3=C(C=C2)C(=O)C(=C\N3C4=NC=CS4)/C(O)=O [Vosaroxin] | -6.24 |  |
| NC(=O)c1ccc2[nH]c(-c3ccc(Oc4ccc(Cl)cc4)cc3)nc2c1 | -4.78 |  |

| Structure (SMILES) | AC50 for growth inhibition (log10 M) [1] | AC50 for growth inhibition (log10 M) [2] |
| --- | --- | --- |
| CCn1c(-c2nonc2N)nc2c(C#CC(C)(C)O)ncc(OC[C@H]3CCCNC3)c21 | -4.88 |  |
| C1CCC(C(CC2CCCCN2)C2CCCCC2)CC1 (stereo not given) [Perhexiline] | -4.68 |  |
| O=C1c2ccccc2-c2n[nH]c3cccc1c23 | -5.63 |  |
| CCC(=O)O[C@@]1([C@H](C)C[C@H]2[C@@H]3C[C@H](F)\C4=C\C(=O)\C=C/[C@]4(C)[C@@]3(F)[C@@H](O)C[C@]12C)C(=O)SCF [Fluticasone propionate] | -4.73 |  |
| CC(C)c1ccc2c(c1)c(SC(C)(C)C)c(CC(C)(C)C(=O)[O-])n2Cc1ccc(Cl)cc1 [MK-886] | -4.63 |  |
| O=C1N(c2ccccc2)c2ccccc2C1(Cc1ccncc1)Cc1ccncc1 [Linopirdine] | -5.23 |  |
| C[C@H](NC(=O)Cc1cc(F)cc(F)c1)C(=O)N[C@@H]1C(=O)N(C)c2ccccc2-c2ccccc21 | -4.68 |  |
| NC(=O)c1ccc(N(C(N)=O)c2c(F)cccc2F)nc1-c1ccc(F)cc1F [VX-702] | -4.93 |  |
| C[C@@H](CN1CC(=O)NC(=O)C1)N1CC(=O)NC(=O)C1 [Dexrazoxane hydrochloride] | -5.33 |  |
| O=C(Nc1cc2cc[nH]c2cn1)c1ccccc1 [OAC1] | -5.38 |  |
| OC(=O)C(CC/1=C/C(=O)NC2=CC=CC=C12)NC(=O)C3=CC=C(Cl)C=C3 (stereo not given) [Rebamipide] | -5.08 |  |
| NC(=O)c1c(OCc2c(F)cc(Br)cc2F)nsc1NC(=O)NCCCCN1CCCC1 [OSI-632] | -4.78 |  |
| FC1=CC=C(C=C1)N2/C=C\C=C(C(=O)NC3=CC=C(OC4=C5C=C[NH]C5=NC=C4)C(=C3)F)/C2=O [BMS-2] | -4.68 |  |
| CNC[C@H](O)c1ccc(O)c(O)c1 [Epinephrine] | -4.42 |  |
| COc1ccc(-n2c(C)c([N+](=O)[O-])c3ccc(O)cc32)cc1 [ID-8] | -5.63 |  |
| Cc1cc(Nc2nc(N[C@@H](C)c3ncc(F)cn3)ncc2Cl)n[nH]1 [AZD-1480] | -5.13 |  |
| CCN(CCO)CCCC(C)Nc1ccnc2cc(Cl)ccc12 (stereo not given) [Hydroxychloroquine sulfate] | -5.13 |  |
| Oc1ccc([C@@H]2Oc3ccc(O)cc3[C@@H]3CCC[C@@H]32)cc1 [Erteberel] | -4.63 |  |
| C[C@H]1COC/2=C1/C(=O)C(=O)C3=C4CCCC(C)(C)C4=CC=C23 [Cryptotanshinone] | -5.23 |  |
